Source: ChEMBL document CHEMBL1124271, “Synthesis of ethyl 2-(4-chlorophenyl)-5-(2-furyl)-4-oxazoleacetate, a hypolipidemic agent, and related compounds” (1988)
Active and inactive are the calls of the source. No cut-off for these calls is given here.

Legend:
Rattus norvegicus [1] = organism: Rattus norvegicus; experiment: Inhibition of collagen-induced platelet aggregation in male SD rats; Inhibition >= 10% but < aspirin (34-96%).; format: functional
Rattus norvegicus [2] = organism: Rattus norvegicus; experiment: Hypolipidemic activity was expressed as percent decrease in triglycerides in Sprague-Dawley rats; format: functional; design: concentration or dose not given beside the values
Rattus norvegicus [3] = organism: Rattus norvegicus; experiment: Hypolipidemic activity was expressed as percent decrease in serum cholesterol in Sprague-Dawley rats; format: functional; design: concentration or dose not given beside the values
Rattus norvegicus [4] = organism: Rattus norvegicus; experiment: Hypolipidemic activity was expressed as percent decrease in triglycerides; NE means no evaluation; format: functional, organism-based
Rattus norvegicus [5] = organism: Rattus norvegicus; experiment: Ability to inhibit collagen -induced platelet aggregation in male SD rats; NE means no evaluation; format: functional, organism-based
Rattus norvegicus [6] = organism: Rattus norvegicus; experiment: Hypolipidemic activity was expressed as percent decrease in serum cholesterol; NE means no evaluation; format: functional, organism-based
Rattus norvegicus [7] = organism: Rattus norvegicus; experiment: Ability to inhibit collagen -induced platelet aggregation in male SD rats; <10; format: functional; design: concentration or dose not given beside the values
Rattus norvegicus [8] = organism: Rattus norvegicus; experiment: Hypolipidemic activity was expressed as percent decrease in triglycerides; format: functional; design: concentration or dose not given beside the values
Rattus norvegicus [9] = organism: Rattus norvegicus; experiment: Hypolipidemic activity was expressed as percent decrease in serum cholesterol; format: functional; design: concentration or dose not given beside the values
Rattus norvegicus [10] = organism: Rattus norvegicus; experiment: The ability to inhibit platelet aggregation was tested; Inhibition >= 10% but < aspirin (34-96%); format: functional
Rattus norvegicus [11] = organism: Rattus norvegicus; experiment: Ability to inhibit collagen -induced platelet aggregation in male SD rats; No evaluation; format: functional, organism-based
Rattus norvegicus [12] = organism: Rattus norvegicus; experiment: Ability to inhibit collagen -induced platelet aggregation in male SD rats; Inhibition >= aspirin (34-96%); format: functional, organism-based
Rattus norvegicus [13] = organism: Rattus norvegicus; experiment: The ability to inhibit platelet aggregation was tested; <10; format: functional
Rattus norvegicus [14] = organism: Rattus norvegicus; experiment: Hypolipidemic activity was expressed as percent decrease in serum cholesterol in Sprague-Dawley rats; No evaluation; format: functional, organism-based
Rattus norvegicus [15] = organism: Rattus norvegicus; experiment: Hypolipidemic activity was expressed as percent decrease in triglycerides; No evaluation; format: functional, organism-based

For `CCOC(=O)Cc1nc(-c2ccc(OC)cc2)oc1-c1ccco1`, the Inhibition (Rattus norvegicus [1]) was “>=10%”, the Reduction (Rattus norvegicus [2]) was 4% and the Reduction (Rattus norvegicus [3]) was 0%.

With `CCCCCCCc1nc(CC(=O)OCC)c(-c2ccsc2)o1` the Reduction (Rattus norvegicus [4]) was “No effect”, the inhibition (Rattus norvegicus [5]) was “No effect” and the Reduction (Rattus norvegicus [6]) was “No effect”.

`CCOC(=O)Cc1nc(-c2ccccc2)oc1C1CCCO1` (configuration not stated) showed a Reduction (Rattus norvegicus [2]) of 8%, a Reduction (Rattus norvegicus [3]) of 8% and an Inhibition (Rattus norvegicus [7]) of under 10%.

`O=C(O)Cc1nc(-c2cccc(C(F)(F)F)c2)oc1-c1ccco1` was tested, and the Inhibition (Rattus norvegicus [1]) was “>=10%”, the Reduction (Rattus norvegicus [2]) was 50% and the Reduction (Rattus norvegicus [3]) was 8%.

In the case of `O=C(O)Cc1nc(C2CCCCC2)oc1-c1ccco1`, the Inhibition (Rattus norvegicus [1]) is reported as “>=10%”, the Reduction (Rattus norvegicus [2]) is reported as 18% and the Reduction (Rattus norvegicus [3]) is reported as 13%.

For `CCOC(=O)Cc1nc(-c2ccc(C)cc2)oc1-c1ccco1`, the Inhibition (Rattus norvegicus [1]) was “>=10%”, the Reduction (Rattus norvegicus [2]) was -6% and the Reduction (Rattus norvegicus [3]) was 9%.

Compound `CCOC(=O)Cc1nc(-c2cccc(C(F)(F)F)c2)oc1-c1ccco1` has a Reduction (Rattus norvegicus [2]) of 0%, a Reduction (Rattus norvegicus [3]) of 15% and an Inhibition (Rattus norvegicus [7]) of under 10%.

In the case of `O=C(O)Cc1nc(-c2ccc(Cl)c(Cl)c2)oc1-c1ccoc1`, the Inhibition (Rattus norvegicus [1]) is reported as “>=10%”, the Reduction (Rattus norvegicus [2]) is reported as 60% and the Reduction (Rattus norvegicus [3]) is reported as 19%.

`CCOC(=O)Cc1nc(-c2ccc(Cl)cc2)oc1-c1ccc(Br)o1` was tested, and the Reduction (Rattus norvegicus [2]) was 2% and the Reduction (Rattus norvegicus [3]) was 10%.

`O=C(Cc1nc(-c2ccc(Cl)cc2)oc1-c1ccco1)OCc1cccnc1` was tested, and the Reduction (Rattus norvegicus [2]) was 42%, the Reduction (Rattus norvegicus [3]) was 18% and the Inhibition (Rattus norvegicus [7]) was under 10%.

Work on `CCOC(=O)Cc1nc(-c2ccc(Cl)cc2)oc1-c1ccc(C=O)o1` yielded a Reduction (Rattus norvegicus [8]) of -5% and a Reduction (Rattus norvegicus [9]) of 9%.

`CCOC(=O)Cc1nc(-c2ccc(Cl)cc2)oc1-c1ccsc1` was tested, and the Inhibition (Rattus norvegicus [10]) was “>=10%”, the Reduction (Rattus norvegicus [2]) was 39% and the Reduction (Rattus norvegicus [3]) was 23%.

With `CCOC(=O)Cc1nc(-c2ccc(Cl)cc2)sc1-c1ccsc1` the Reduction (Rattus norvegicus [2]) was 21%, the Reduction (Rattus norvegicus [3]) was -8% and the inhibition (Rattus norvegicus [11]) was “No effect”.

With `COc1ccc(-c2nc(CC(=O)O)c(-c3ccco3)o2)cc1` the Inhibition (Rattus norvegicus [1]) was “>=10%”, the Reduction (Rattus norvegicus [2]) was -1% and the Reduction (Rattus norvegicus [3]) was 5%.

Work on `CCOC(=O)Cc1nc(-c2ccc(Cl)c(Cl)c2)oc1-c1ccoc1` yielded a Reduction (Rattus norvegicus [2]) of 49%, a Reduction (Rattus norvegicus [3]) of 19% and an Inhibition (Rattus norvegicus [7]) of under 10%.

For `CC(=O)Oc1ccccc1C(=O)O`, the inhibition (Rattus norvegicus [12]) was “Active”.

`CCOC(=O)C(C)(C)Oc1ccc(Cl)cc1` [CLOFIBRATE] showed a Reduction (Rattus norvegicus [8]) of 30%, an Inhibition (Rattus norvegicus [7]) of under 10% and a Reduction (Rattus norvegicus [9]) of 15%.

`CC(C)c1nc(CC(=O)O)c(-c2ccsc2)o1` was tested, and the Inhibition (Rattus norvegicus [1]) was “>=10%”, the Reduction (Rattus norvegicus [2]) was 16% and the Reduction (Rattus norvegicus [3]) was 20%.

`CCCCCCCc1nc(CC(=O)O)c(-c2ccsc2)o1` was tested, and the Inhibition (Rattus norvegicus [1]) was “>=10%”, the Reduction (Rattus norvegicus [8]) was 27% and the Reduction (Rattus norvegicus [9]) was 11%.

With `CC(C)(C(=O)O)c1nc(-c2ccc(Cl)cc2)oc1-c1ccco1` the Reduction (Rattus norvegicus [2]) was 54%, the Reduction (Rattus norvegicus [3]) was 16% and the Inhibition (Rattus norvegicus [13]) was under 10%.

In the case of `O=C(O)Cc1nc(-c2ccc(Cl)cc2)oc1-c1ccco1`, the Inhibition (Rattus norvegicus [1]) is reported as “>=10%”, the Reduction (Rattus norvegicus [2]) is reported as 35% and the Reduction (Rattus norvegicus [3]) is reported as 20%.

With `CCOC(=O)C(C)c1nc(-c2ccc(Cl)cc2)oc1-c1ccoc1` (configuration not stated) the Inhibition (Rattus norvegicus [10]) was “>=10%”, the Reduction (Rattus norvegicus [2]) was 45% and the Reduction (Rattus norvegicus [3]) was 22%.

With `CCOC(=O)C(C)(C)c1nc(-c2ccc(Cl)cc2)oc1-c1ccco1` the Reduction (Rattus norvegicus [2]) was -25%, the Reduction (Rattus norvegicus [3]) was -4% and the Inhibition (Rattus norvegicus [13]) was under 10%.

`O=C(O)Cc1nc(-c2ccccc2)oc1-c1ccco1` was tested, and the Inhibition (Rattus norvegicus [1]) was “>=10%”, the Reduction (Rattus norvegicus [2]) was 29% and the Reduction (Rattus norvegicus [3]) was 14%.

`CCOC(=O)Cc1nc(C2CCCCC2)oc1-c1ccco1` was tested, and the inhibition (Rattus norvegicus [11]) was “No effect”, the Reduction (Rattus norvegicus [14]) was “No effect” and the Reduction (Rattus norvegicus [15]) was “No effect”.

Compound `CCOC(=O)Cc1nc(-c2ccc(Cl)cc2)sc1-c1ccco1` has a Reduction (Rattus norvegicus [2]) of 17% and a Reduction (Rattus norvegicus [3]) of -15%.

For `Cc1ccc(-c2nc(CC(=O)O)c(-c3ccco3)o2)cc1`, the Inhibition (Rattus norvegicus [1]) was “>=10%”, the Reduction (Rattus norvegicus [2]) was 29% and the Reduction (Rattus norvegicus [3]) was 9%.

`CCOC(=O)Cc1nc(-c2ccccc2)oc1-c1ccco1` was tested, and the Inhibition (Rattus norvegicus [1]) was “>=10%”, the Reduction (Rattus norvegicus [2]) was 23% and the Reduction (Rattus norvegicus [3]) was 14%.

With `CCOC(=O)Cc1nc(-c2ccc(Cl)cc2)oc1-c1ccoc1` the Inhibition (Rattus norvegicus [1]) was “>=10%”, the Reduction (Rattus norvegicus [2]) was 42% and the Reduction (Rattus norvegicus [3]) was 25%.

With `CCCCOC(=O)Cc1nc(-c2ccc(Cl)cc2)oc1-c1ccco1` the Reduction (Rattus norvegicus [2]) was 27%, the Reduction (Rattus norvegicus [3]) was 20% and the Inhibition (Rattus norvegicus [7]) was under 10%.

In the case of `CCOC(=O)Cc1nc(-c2ccc(F)cc2)oc1-c1ccco1`, the Inhibition (Rattus norvegicus [1]) is reported as “>=10%”, the Reduction (Rattus norvegicus [2]) is reported as 24% and the Reduction (Rattus norvegicus [3]) is reported as 20%.

`CCOC(=O)Cc1nc(-c2ccc(Cl)cc2)oc1N1CCCC1` gave a Reduction (Rattus norvegicus [2]) of -20% and a Reduction (Rattus norvegicus [3]) of -2%.

`CCCCCCCCCCCCOC(=O)Cc1nc(-c2ccc(Cl)cc2)oc1-c1ccco1` was tested, and the Reduction (Rattus norvegicus [8]) was 30%, the Inhibition (Rattus norvegicus [7]) was under 10% and the Reduction (Rattus norvegicus [9]) was 20%.

`CCOC(=O)Cc1nc(C(C)C)oc1-c1ccco1` gave a Reduction (Rattus norvegicus [2]) of 21%, a Reduction (Rattus norvegicus [3]) of 12% and an Inhibition (Rattus norvegicus [7]) of under 10%.

In the case of `CCOC(=O)Cc1nc(C(C)C)oc1-c1ccsc1`, the Inhibition (Rattus norvegicus [1]) is reported as “>=10%”, the Reduction (Rattus norvegicus [2]) is reported as 28% and the Reduction (Rattus norvegicus [3]) is reported as 15%.

With `CCOC(=O)Cc1nc(C)oc1-c1ccco1` the inhibition (Rattus norvegicus [11]) was “No effect”, the Reduction (Rattus norvegicus [14]) was “No effect” and the Reduction (Rattus norvegicus [15]) was “No effect”.

With `CCOC(=O)Cc1nc(-c2ccccc2)oc1-c1ccoc1` the Inhibition (Rattus norvegicus [1]) was “>=10%”, the Reduction (Rattus norvegicus [2]) was 46% and the Reduction (Rattus norvegicus [3]) was 17%.

Work on `CCOC(=O)C(CC)c1nc(-c2ccc(Cl)cc2)oc1-c1ccco1` (configuration not stated) yielded a Reduction (Rattus norvegicus [2]) of -10%, a Reduction (Rattus norvegicus [3]) of 0% and an Inhibition (Rattus norvegicus [13]) of under 10%.

For `O=C(O)Cc1nc(-c2ccc(F)cc2)oc1-c1ccco1`, the Inhibition (Rattus norvegicus [1]) was “>=10%”, the Reduction (Rattus norvegicus [8]) was 10% and the Reduction (Rattus norvegicus [9]) was 20%.

`CCOC(=O)Cc1nc(-c2ccc(Cl)cc2)oc1-c1ccco1` was tested, and the Inhibition (Rattus norvegicus [1]) was “>=10%”, the Reduction (Rattus norvegicus [2]) was 35% and the Reduction (Rattus norvegicus [3]) was 23%.

In the case of `CCCCCCCOC(=O)Cc1nc(-c2ccc(Cl)cc2)oc1-c1ccco1`, the Reduction (Rattus norvegicus [8]) is reported as 42%, the Inhibition (Rattus norvegicus [7]) is reported as under 10% and the Reduction (Rattus norvegicus [9]) is reported as 19%.

`CCOC(=O)Cc1nc(-c2ccc(F)cc2)oc1-c1ccoc1` was tested, and the Inhibition (Rattus norvegicus [1]) was “>=10%”, the Reduction (Rattus norvegicus [2]) was 28% and the Reduction (Rattus norvegicus [3]) was 30%.

`Cc1nc(CC(=O)O)c(-c2ccco2)o1` was tested, and the Reduction (Rattus norvegicus [2]) was -20%, the Reduction (Rattus norvegicus [3]) was 10% and the Inhibition (Rattus norvegicus [7]) was under 10%.

`CCOC(=O)Cc1nc(-c2ccc(Cl)cc2)oc1-c1ccc(S(=O)(=O)O)o1` was tested, and the Reduction (Rattus norvegicus [2]) was 23% and the Reduction (Rattus norvegicus [3]) was -5%.

`CCCCc1nc(CC(=O)OCC)c(-c2ccco2)o1` was tested, and the Reduction (Rattus norvegicus [2]) was 16% and the Reduction (Rattus norvegicus [3]) was 2%.

`CC(C(=O)O)c1nc(-c2ccc(Cl)cc2)oc1-c1ccco1` (configuration not stated) was tested, and the Reduction (Rattus norvegicus [2]) was 41% and the Reduction (Rattus norvegicus [3]) was 16%.

With `CCOC(=O)C(C)c1nc(-c2ccc(Cl)cc2)oc1-c1ccco1` (configuration not stated) the Inhibition (Rattus norvegicus [10]) was “>=10%”, the Reduction (Rattus norvegicus [2]) was 31% and the Reduction (Rattus norvegicus [3]) was 20%.

Compound `O=C(O)Cc1nc(-c2ccc(Cl)cc2)oc1-c1ccoc1` has a Reduction (Rattus norvegicus [2]) of 42% and a Reduction (Rattus norvegicus [3]) of 23%.

Compound `CC(C)c1nc(CC(=O)O)c(-c2ccco2)o1` has a Reduction (Rattus norvegicus [2]) of 9%, a Reduction (Rattus norvegicus [3]) of 5% and an Inhibition (Rattus norvegicus [7]) of under 10%.

With `CCOC(=O)Cc1nc(-c2ccc(Cl)cc2)oc1-c1ccc(C(C)=O)o1` the Reduction (Rattus norvegicus [2]) was -14% and the Reduction (Rattus norvegicus [3]) was 0%.

For `O=C(O)Cc1nc(-c2ccc(F)cc2)oc1-c1ccoc1`, the Inhibition (Rattus norvegicus [1]) was “>=10%”, the Reduction (Rattus norvegicus [2]) was 38% and the Reduction (Rattus norvegicus [3]) was 23%.
